Results: the supplement of paper PMC11208160

Assay: recombinant UMI read abundance after kanamycin selection (control-corrected) (log10(CPM+1)); higher = more efficient recombination; extreme values may be limits of the assay; sequences stand for … in AGTGCAGAGAAAATCGGCCAGTTTTCTCTGCCTGCAGTCCGCATGCCGTGGGACCCCTTGGGTTCTAACCTGTTGCCTAGATTTATGCAGCGGACTGCCTTTCTCCCAAAGTGATAAACCGG…AGGTTGGTTTCACT; site = the 11-nt donor
Method: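 Pooled E. coli donor-specificity screen for the IS621 bridge recombinase. Each library member carries a reprogrammed 11-nt donor and a full-length LE bridge RNA expressed in cis from the natural promoter, with a paired donor-binding loop (8-nt LDG + 4-nt RDG) and a target-binding loop fixed to T5. It is co-electroporated with a T5 target plasmid; recombinase is induced with 0.07 mM IPTG and recombinants are selected on kanamycin. UMIs are counted as CPM, averaged over two biological replicates and corrected by the unselected control. Molecule = full bridge RNA written as DNA, built from the T5 scaffold: LDG = donor specificity nt 1-8, RDG = reverse complement of nt 8-11.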
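Note: IS621 bridge recombinase in Escherichia coli cells against a fixed T5 target plasmid.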

Sequence: ACACATTCATGGACCGGTTTTCCCGGTAATCCGTATTTGAC (site ACACATGCTGT)
- recombinant UMI read abundance (log10): 0

Sequence: ACACATTCATGGACCGGTTTTCCCGGTAATCCGTATTTGAC (site ACACATTCTGT)
- recombinant UMI read abundance (log10): 2.74

Sequence: ACACCAGCATGGACCGGTTTTCCCGGTAATCCGTATTTGAT (site ACACCAGCTAT)
- recombinant UMI read abundance (log10): 2.01

Sequence: ACACCCACATGGACCGGTTTTCCCGGTAATCCGTATTTGAG (site ACACCCACTCT)
- recombinant UMI read abundance (log10): 1.37

Sequence: ACACGAACATGGACCGGTTTTCCCGGTAATCCGTATTTGTC (site AAACGAACTGA)
- recombinant UMI read abundance (log10): 0

Sequence: ACACGAACATGGACCGGTTTTCCCGGTAATCCGTATTTGTC (site ACAAGAACTGA)
- recombinant UMI read abundance (log10): 0

Sequence: ACACGAACATGGACCGGTTTTCCCGGTAATCCGTATTTGTC (site ACACAAACTGA)
- recombinant UMI read abundance (log10): 1.4

Sequence: ACACGAACATGGACCGGTTTTCCCGGTAATCCGTATTTGTC (site ACACCAACTGA)
- recombinant UMI read abundance (log10): 0

Sequence: ACACGAACATGGACCGGTTTTCCCGGTAATCCGTATTTGTC (site ACACGAACTAA)
- recombinant UMI read abundance (log10): 1.83

Sequence: ACACGAACATGGACCGGTTTTCCCGGTAATCCGTATTTGTC (site ACACGAACTCA)
- recombinant UMI read abundance (log10): 0.338

Sequence: ACACGAACATGGACCGGTTTTCCCGGTAATCCGTATTTGTC (site ACACGAACTGA)
- recombinant UMI read abundance (log10): 2.77

Sequence: ACACGAACATGGACCGGTTTTCCCGGTAATCCGTATTTGTC (site ACACGAACTGC)
- recombinant UMI read abundance (log10): 0

Sequence: ACACGAACATGGACCGGTTTTCCCGGTAATCCGTATTTGTC (site ACACGAACTGG)
- recombinant UMI read abundance (log10): 1.74

Sequence: ACACGAACATGGACCGGTTTTCCCGGTAATCCGTATTTGTC (site ACACGAACTGT)
- recombinant UMI read abundance (log10): 1.41

Sequence: ACACGAACATGGACCGGTTTTCCCGGTAATCCGTATTTGTC (site ACACGAACTTA)
- recombinant UMI read abundance (log10): 1.96

Sequence: ACACGAACATGGACCGGTTTTCCCGGTAATCCGTATTTGTC (site ACACGACCTGA)
- recombinant UMI read abundance (log10): 0

Sequence: ACACGAACATGGACCGGTTTTCCCGGTAATCCGTATTTGTC (site ACACGAGCTGA)
- recombinant UMI read abundance (log10): 0

Sequence: ACACGAACATGGACCGGTTTTCCCGGTAATCCGTATTTGTC (site ACACGATCTGA)
- recombinant UMI read abundance (log10): 1.55

Sequence: ACACGAACATGGACCGGTTTTCCCGGTAATCCGTATTTGTC (site ACACGCACTGA)
- recombinant UMI read abundance (log10): 0

Sequence: ACACGAACATGGACCGGTTTTCCCGGTAATCCGTATTTGTC (site ACACGGACTGA)
- recombinant UMI read abundance (log10): 1.61

Sequence: ACACGAACATGGACCGGTTTTCCCGGTAATCCGTATTTGTC (site ACACGTACTGA)
- recombinant UMI read abundance (log10): 0

Sequence: ACACGAACATGGACCGGTTTTCCCGGTAATCCGTATTTGTC (site ACACTAACTGA)
- recombinant UMI read abundance (log10): 0

Sequence: ACACGAACATGGACCGGTTTTCCCGGTAATCCGTATTTGTC (site ACAGGAACTGA)
- recombinant UMI read abundance (log10): 0

Sequence: ACACGAACATGGACCGGTTTTCCCGGTAATCCGTATTTGTC (site ACATGAACTGA)
- recombinant UMI read abundance (log10): 0

Sequence: ACACGAACATGGACCGGTTTTCCCGGTAATCCGTATTTGTC (site ACCCGAACTGA)
- recombinant UMI read abundance (log10): 0

Sequence: ACACGAACATGGACCGGTTTTCCCGGTAATCCGTATTTGTC (site ACGCGAACTGA)
- recombinant UMI read abundance (log10): 0

Sequence: ACACGAACATGGACCGGTTTTCCCGGTAATCCGTATTTGTC (site ACTCGAACTGA)
- recombinant UMI read abundance (log10): 0.747

Sequence: ACACGAACATGGACCGGTTTTCCCGGTAATCCGTATTTGTC (site AGACGAACTGA)
- recombinant UMI read abundance (log10): 0

Sequence: ACACGAACATGGACCGGTTTTCCCGGTAATCCGTATTTGTC (site ATACGAACTGA)
- recombinant UMI read abundance (log10): 0.0105

Sequence: ACACGAACATGGACCGGTTTTCCCGGTAATCCGTATTTGTC (site CCACGAACTGA)
- recombinant UMI read abundance (log10): 0.924

Sequence: ACACGAACATGGACCGGTTTTCCCGGTAATCCGTATTTGTC (site GCACGAACTGA)
- recombinant UMI read abundance (log10): 0

Sequence: ACACGAACATGGACCGGTTTTCCCGGTAATCCGTATTTGTC (site TCACGAACTGA)
- recombinant UMI read abundance (log10): 0

Sequence: ACACGGACATGGACCGGTTTTCCCGGTAATCCGTATTTGGC (site ACACGGACTGC)
- recombinant UMI read abundance (log10): 2.58

Sequence: ACACGTACATGGACCGGTTTTCCCGGTAATCCGTATTTGTC (site ACACGAACTGA)
- recombinant UMI read abundance (log10): 0

Sequence: ACACGTACATGGACCGGTTTTCCCGGTAATCCGTATTTGTC (site ACACGCACTGA)
- recombinant UMI read abundance (log10): 0.199

Sequence: ACACGTACATGGACCGGTTTTCCCGGTAATCCGTATTTGTC (site ACACGGACTGA)
- recombinant UMI read abundance (log10): 0

Sequence: ACACGTACATGGACCGGTTTTCCCGGTAATCCGTATTTGTC (site ACACGTACTGA)
- recombinant UMI read abundance (log10): 1.49

Sequence: ACAGACACATGGACCGGTTTTCCCGGTAATCCGTATTTGTC (site ACAGACACTGA)
- recombinant UMI read abundance (log10): 2.7

Sequence: ACAGACCCATGGACCGGTTTTCCCGGTAATCCGTATTTGCC (site ACAGACCCTGG)
- recombinant UMI read abundance (log10): 1.2

Sequence: ACAGCATCATGGACCGGTTTTCCCGGTAATCCGTATTTGCG (site ACAGCATCTCG)
- recombinant UMI read abundance (log10): 2.33

Sequence: ACAGCATCATGGACCGGTTTTCCCGGTAATCCGTATTTGCG (site ACAGTATCTTG)
- recombinant UMI read abundance (log10): 0

Sequence: ACAGCTTCATGGACCGGTTTTCCCGGTAATCCGTATTTGCA (site ACAGCTTCTTG)
- recombinant UMI read abundance (log10): 2.59

Sequence: ACAGCTTCATGGACCGGTTTTCCCGGTAATCCGTATTTGCA (site ACAGTATCTTG)
- recombinant UMI read abundance (log10): 2.16

Sequence: ACAGTACCATGGACCGGTTTTCCCGGTAATCCGTATTTGAA (site ACAGTACCTTT)
- recombinant UMI read abundance (log10): 0.501

Sequence: ACAGTACCATGGACCGGTTTTCCCGGTAATCCGTATTTGAA (site ACAGTATCTTG)
- recombinant UMI read abundance (log10): 0

Sequence: ACAGTATCATGGACCGGTTTTCCCGGTAATCCGTATTTGCA (site AAAATATCTTG)
- recombinant UMI read abundance (log10): 1.79

Sequence: ACAGTATCATGGACCGGTTTTCCCGGTAATCCGTATTTGCA (site AAAGAATCTTG)
- recombinant UMI read abundance (log10): 1.57

Sequence: ACAGTATCATGGACCGGTTTTCCCGGTAATCCGTATTTGCA (site AAAGTAACTTG)
- recombinant UMI read abundance (log10): 0.587

Sequence: ACAGTATCATGGACCGGTTTTCCCGGTAATCCGTATTTGCA (site AAAGTATCTAG)
- recombinant UMI read abundance (log10): 0

Sequence: ACAGTATCATGGACCGGTTTTCCCGGTAATCCGTATTTGCA (site AAAGTATCTTC)
- recombinant UMI read abundance (log10): 0.00296

Sequence: ACAGTATCATGGACCGGTTTTCCCGGTAATCCGTATTTGCA (site AAAGTATCTTG)
- recombinant UMI read abundance (log10): 2.1

Sequence: ACAGTATCATGGACCGGTTTTCCCGGTAATCCGTATTTGCA (site AAAGTCTCTTG)
- recombinant UMI read abundance (log10): 0.0144

Sequence: ACAGTATCATGGACCGGTTTTCCCGGTAATCCGTATTTGCA (site AACGTATCTTG)
- recombinant UMI read abundance (log10): 2.46

Sequence: ACAGTATCATGGACCGGTTTTCCCGGTAATCCGTATTTGCA (site ACAAAATCTTG)
- recombinant UMI read abundance (log10): 0.724

Sequence: ACAGTATCATGGACCGGTTTTCCCGGTAATCCGTATTTGCA (site ACAATAACTTG)
- recombinant UMI read abundance (log10): 0

Sequence: ACAGTATCATGGACCGGTTTTCCCGGTAATCCGTATTTGCA (site ACAATATCTAG)
- recombinant UMI read abundance (log10): 0.00607

Sequence: ACAGTATCATGGACCGGTTTTCCCGGTAATCCGTATTTGCA (site ACAATATCTTC)
- recombinant UMI read abundance (log10): 0.00345

Sequence: ACAGTATCATGGACCGGTTTTCCCGGTAATCCGTATTTGCA (site ACAATATCTTG)
- recombinant UMI read abundance (log10): 2.8

Sequence: ACAGTATCATGGACCGGTTTTCCCGGTAATCCGTATTTGCA (site ACAATCTCTTG)
- recombinant UMI read abundance (log10): 0

Sequence: ACAGTATCATGGACCGGTTTTCCCGGTAATCCGTATTTGCA (site ACACCATCTTG)
- recombinant UMI read abundance (log10): 0.786

Sequence: ACAGTATCATGGACCGGTTTTCCCGGTAATCCGTATTTGCA (site ACACTAGCTTG)
- recombinant UMI read abundance (log10): 0.00526

Sequence: ACAGTATCATGGACCGGTTTTCCCGGTAATCCGTATTTGCA (site ACACTATCTCG)
- recombinant UMI read abundance (log10): 0

Sequence: ACAGTATCATGGACCGGTTTTCCCGGTAATCCGTATTTGCA (site ACACTATCTTA)
- recombinant UMI read abundance (log10): 0

Sequence: ACAGTATCATGGACCGGTTTTCCCGGTAATCCGTATTTGCA (site ACACTATCTTG)
- recombinant UMI read abundance (log10): 1.61

Sequence: ACAGTATCATGGACCGGTTTTCCCGGTAATCCGTATTTGCA (site ACACTTTCTTG)
- recombinant UMI read abundance (log10): 0

Sequence: ACAGTATCATGGACCGGTTTTCCCGGTAATCCGTATTTGCA (site ACAGAAACTTG)
- recombinant UMI read abundance (log10): 0

Sequence: ACAGTATCATGGACCGGTTTTCCCGGTAATCCGTATTTGCA (site ACAGAATCTAG)
- recombinant UMI read abundance (log10): 0

Sequence: ACAGTATCATGGACCGGTTTTCCCGGTAATCCGTATTTGCA (site ACAGAATCTTC)
- recombinant UMI read abundance (log10): 0.287

Sequence: ACAGTATCATGGACCGGTTTTCCCGGTAATCCGTATTTGCA (site ACAGAATCTTG)
- recombinant UMI read abundance (log10): 2.53

Sequence: ACAGTATCATGGACCGGTTTTCCCGGTAATCCGTATTTGCA (site ACAGACTCTTG)
- recombinant UMI read abundance (log10): 1.68

Sequence: ACAGTATCATGGACCGGTTTTCCCGGTAATCCGTATTTGCA (site ACAGCAGCTTG)
- recombinant UMI read abundance (log10): 0.00322

Sequence: ACAGTATCATGGACCGGTTTTCCCGGTAATCCGTATTTGCA (site ACAGCATCTCG)
- recombinant UMI read abundance (log10): 0.00554
